≈ marks a conversion by molar mass, not a printed value. Like-named read-outs stand apart in the source and are kept apart here.
Experiments:
[1] = Solubility in water and in ethanol; format: physicochemical
Excerpt: The solubilities of quercetin in water and in ethanol are, by contrast, only 0.04 g/l and 15.8 g/l respectively.

[2] = compared with the other investigated hydroxyflavones, over the entire pH range; cited from earlier work

For `O=c1c(O)c(-c2ccc(O)c(O)c2)oc2cc(O)cc(O)c12` [quercetin, 3,3′,4′,5,7-pentahydroxyflavone], the solubility ([1]; organic solvent or mixture, at 25° C. in ethanol, read-out: solubility in ethanol) is given as 15.8 mg/mL (≈ 52.3 mM) and the antioxidative action [2] is given as “highest activity”.

In the case of `CCCCOC1(c2ccc(O)c(O)c2)Oc2cc(O)cc(O)c2C(=O)C1(O)O` (stereo not shown) [2-butoxy-2-(3,4-dihydroxyphenyl)-3,3,5,7-tetrahydroxychroman-4-one], the solubility ([1]; 25 °C, organic solvent or mixture) is reported as 855 mg/mL (≈ 2180 mM) and the solubility ([1]; 25 °C, water) is reported as 2.9 mg/mL (≈ 7.39 mM).

Source: patent US7867993B2, “Preparation containing oxidized flavonoid derivatives” (Merck Patent GmbH, priority 2005, dated 2011)
